In patent publication US6428654B1, “Fungicidal method” (Hercules Incorporated, priority 2000, dated 2002):
Values joined by “and” are separate entries in the source; they are usually repeats but may differ in a detail not shown here. Equal values may be shown once.

System: Aspergillus niger (ATCC 6275)
Experiment: Microtiter XTT growth inhibition assay
Assay type: cell-based
Settings: 37° C. 24 hours, XTT read at 465 nm, duplicate plates (Plate 1, Plate 2)
Method: Preparation of the Spore Inoculum—Two sterile petri dishes containing potato dextrose agar are inoculated with Aspergillus niger (ATCC 6275). The plates are incubated for at least 48 hours at 35+1 ° C. At the end of the incubation period, the plates are checked for mycelia and fruiting bodies of the fungus. To prepare the spore-mycelial suspension, the agar surface is scraped with a sterile cotton tip swab. The spores are suspended from the cotton swab in a sterile test tube containing a solution of 0.85% saline and 0.01% Tween 80 (v/v). The spore-mycelial suspension is shaken or vortexed to break up spore and mycelial clumps. Prior to the addition of the spore-mycelial suspension to the test tube containing saline and Tween, a spectrophotometer is set to 650 nm and the absorbance reading is balanced to zero. The optical density (absorbance) of the spore-mycelial suspension is measured in the spectrophotometer. If necessary, the optical density is adjusted to 0.29 absorbance units by addition of diluent or spores. At an optical density of 0.29 absorbance units (at 650 nm), the concentration of spores is 1×10^9 spores/ml. The spore-mycelial suspension is diluted 1/1000 to yield inoculum used for the microtiter assay, having a concentration of 1×10^6 spores/ml.
Microtiter Assay—Six MULTISCREEN filtration plates (96-well MULTISCREEN-GV, clear plates with 0.22 μm membrane; Millipore Corp., Molsheim, France) are used for a three dose response protocol. This protocol and the six MULTISCREEN plates allows for duplication of the experimental results. The three actives employed are BAS49002F (kresoxim methyl at 50 wt %; BASF Corporation, Ludwigshafen, Germany), AF1912 (diiodomethyl-paratolylsulfone; Angus Chemical Company, Buffalo Grove, Ill.), and MBTC (methylenebisthiocyanate; Aldrich Chemical Company, Milwaukee, Wis.). These actives are individually diluted with water to a concentration of 40 ppm actives. Using separate dilution blocks for each active, the actives are serially diluted to reach experimental dose ranges from 10 to 0.156 ppm. Along with the treatments (actives), Sabouraud Dextrose broth (DIFCO Laboratories, Detroit Mich.) and inoculum are added to each well. The microtiter plates are incubated at 37° C. for 24 hours, and after this period a 0.1% solution of XTT (2,3-bis[2-methoxy-4-nitro-5-sulfophenyl]-2H-tetrazolium-5-carboxanilide; Sigma Chemical, Saint Louis, Mo.) and 0.01% of PMS (phenazine methosulfate; Sigma Chemical, Saint Louis, Mo.) are added to each well. The plates are incubated for approximately 3 more hours. Filtration via the MULTISCREEN plates removes the mycelial growth and nonvegetated spores of Aspergillus niger. Each microtiter well is read at 465 nm for the reduction of XTT by metabolically active cells (i.e., a color change from the untreated controls would indicate respiring fungal cells). Growth inhibition results are presented in Table 2, which represents the processed absorbance data that has been converted as a percent inhibition of fungal growth by the three actives tested (BAS49002F, AF1912, and MBTC). The dashed lines in Table 2 indicate negative inhibition values, which indicate that cells were viable, but in futile cell cycles.

In the case of N#CSCSC#N [MBTC, methylenebisthiocyanate], the “percent inhibition of fungal growth” value (0.156 ppm actives) is reported as “— (The dashed lines in Table 2 indicate negative inhibition values, which indicate that cells were viable, but in futile cell cycles)”, the “percent inhibition of fungal growth” value (0.31 ppm actives) is reported as “— (The dashed lines in Table 2 indicate negative inhibition values, which indicate that cells were viable, but in futile cell cycles)” and the “percent inhibition of fungal growth” value (0.625 ppm actives) is reported as “— (The dashed lines in Table 2 indicate negative inhibition values, which indicate that cells were viable, but in futile cell cycles)”. For the same molecule, the “percent inhibition of fungal growth” value (1.25 ppm actives) was “— (The dashed lines in Table 2 indicate negative inhibition values, which indicate that cells were viable, but in futile cell cycles)”, the “percent inhibition of fungal growth” value (2.5 ppm actives) was 86% and 84% and the “percent inhibition of fungal growth” value (5.0 ppm actives) was 88% and 89%. For the same molecule, the “percent inhibition of fungal growth” value (10.0 ppm actives) was 88% and 89%.
